Experimental findings from publication PMC10154249, “Unique progerin C-terminal peptide ameliorates Hutchinson–Gilford progeria syndrome phenotype by rescuing BUBR1” (Nature Aging, 2023) are described below.

Data set [1] deals with BUBR1 / CyclinA2 in HGADFN003 cells. Briefly: Western blot of BUBR1 and CyclinA2 in HGADFN003 cells. The data set is classed as cell-based, human. As to the method:
Western blot was performed as previously described. Cells were lysed in 1× Laemmli sample buffer after washing twice in cold PBS without calcium and magnesium. Protein concentrations were determined using the bicinchoninic acid (BCA) protein assay. Protein lysates were subjected to SDS–PAGE, transferred to 0.45-μm pore size hydrophobic PVDF transfer membrane (Merck Millipore), detected with the appropriate primary antibodies coupled with horseradish peroxidase-conjugated corresponding secondary antibodies, and visualized using enhanced chemiluminescence ECL reagent (GE Healthcare). The Tanon 5500 high-definition low-illumination CCD system (Tanon FLI Capture v.1.02) was used to capture chemiluminescent signals.
(In general: Immunoblotting shows a protein as a band on a membrane.)

A further data set deals with HGPS cells. Nature of the data set: Cellular uptake of FITC-modified UPCP. It is filed as cell-based, human. The protocol:
Fibroblasts from patients with HGPS were obtained from The Progeria Research Foundation Cell and Tissue Bank (http://www.progeriaresearch.org). The following fibroblasts were used: HGADFN003, HGADFN167, HGMDFN090 and HGFDFN168. Human dermal fibroblasts (GM00038 and AG09602) were obtained from Coriell Cell Repository (https://catalog.coriell.org). These cells were characterized by DNA fingerprinting and isozyme detection and were tested by a MycoBlue Mycoplasma Detector (Vazyme Biotech) to exclude mycoplasma contamination before the experiments. […] HGADFN003, HGADFN167, HGMDFN090, HGFDFN168, GM00038 and AG09602 were cultured in DMEM medium with 15% (v/v) fetal bovine serum (VivaCell). […] For bleomycin-induced senescence, IMR90 cells were incubated with the culture medium containing 20 μg ml^–1 Bleomycin (Selleck, catalog no. S1214) for 2 h and analyzed 10 days later, or as otherwise indicated. For doxorubicin-induced senescence, IMR90 cells were treated twice with 100 nM Doxorubicin (Selleck, catalog no. S1208) with a 2 day interval and analyzed 10 days later, or as otherwise indicated. For ionizing radiation (IR)-induced senescence, IMR90 cells were exposed to 10 Gy Gamma rays, and analyzed 10 days later, or as otherwise indicated, the control IMR90 cells were mock irradiated. […]

The target in a further data set is T1, BUBR1 (Homo sapiens, UniProt O60566).
T1 construct: made in house
T1 sequence (O60566 whole entry): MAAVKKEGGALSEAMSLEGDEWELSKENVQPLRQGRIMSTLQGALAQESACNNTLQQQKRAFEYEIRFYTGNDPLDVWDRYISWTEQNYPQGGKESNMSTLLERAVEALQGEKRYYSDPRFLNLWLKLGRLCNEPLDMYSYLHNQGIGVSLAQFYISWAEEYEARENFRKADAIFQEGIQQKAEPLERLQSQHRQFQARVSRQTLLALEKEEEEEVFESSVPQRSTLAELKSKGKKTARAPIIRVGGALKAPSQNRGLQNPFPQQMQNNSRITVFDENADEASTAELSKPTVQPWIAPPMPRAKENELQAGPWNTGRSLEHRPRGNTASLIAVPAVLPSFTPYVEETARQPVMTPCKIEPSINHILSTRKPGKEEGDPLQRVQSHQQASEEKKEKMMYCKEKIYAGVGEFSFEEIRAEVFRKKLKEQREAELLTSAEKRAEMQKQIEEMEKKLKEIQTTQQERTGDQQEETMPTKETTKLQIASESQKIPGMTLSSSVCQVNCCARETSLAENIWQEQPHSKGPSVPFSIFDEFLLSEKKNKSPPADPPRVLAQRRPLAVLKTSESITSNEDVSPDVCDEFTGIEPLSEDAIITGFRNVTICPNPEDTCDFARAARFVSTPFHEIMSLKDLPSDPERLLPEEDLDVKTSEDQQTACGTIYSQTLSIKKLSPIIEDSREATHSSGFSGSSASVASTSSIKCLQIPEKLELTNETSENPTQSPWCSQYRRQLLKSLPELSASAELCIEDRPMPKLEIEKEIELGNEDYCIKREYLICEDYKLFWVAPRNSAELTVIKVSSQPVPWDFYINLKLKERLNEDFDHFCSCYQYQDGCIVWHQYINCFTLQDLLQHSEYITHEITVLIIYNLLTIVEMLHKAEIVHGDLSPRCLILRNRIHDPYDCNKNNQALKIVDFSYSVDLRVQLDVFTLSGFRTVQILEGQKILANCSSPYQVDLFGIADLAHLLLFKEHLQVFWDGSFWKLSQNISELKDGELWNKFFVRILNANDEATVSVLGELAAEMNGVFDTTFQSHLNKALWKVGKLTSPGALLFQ
Briefly: Microscale thermophoresis (MST) of UPCP and BUBR1. It is filed as binding. As to conditions: Fig. 3d. As to the method: Cells were harvested and lysed in buffer A mixed with protease inhibitor cocktail tablet (Roche) after 48 h. […] The beads were washed three times using 1× Tris saline buffer (50 mM Tris-HCl (pH 7.4) and 150 mM NaCl)) for 8 min each. The bound proteins BUBR1 or PTBP1 were eluted with 3×Flag peptide (ApexBio) for 2 h at 4 °C. Finally, BUBR1 or PTBP1 was concentrated and recovered by using the Centrifugal Filters (Amicon Ultra).
His-UPCP was eluted with Imidazole eluent for 2 h at 4 °C and concentrated and recovered by using centrifugal filters (Amicon Ultra). Flag-BUBR1 or PTBP1 was purified as described in Affinity purification of Flag-tagged protein. The purified protein was diluted with 0.05% Tween-20 in PBS in to an appropriate concentration (His-UPCP: 50 nM, Flag-BUBR1: 25 μM, Flag-PTBP1: 45 μM). Then, His-UPCP was labeled with RED-Tris-NAT according to the manufacturer’s instructions (NanoTemper, MO-L018). Flag-BUBR1 or Flag-PTBP1 was diluted by 16 concentration gradients in turn and mixed with labeled protein (His-UPCP). The capillaries (MST NT115 premium) were loaded and the samples measured on the instrument (NanoTemper Monolith NT.115). Data were analyzed by MO.AffinityAnalysis and curves were drawn using Origin 2019.
On the technique in general: MST reads how a fluorescent partner responds to local heating, with and without ligand.

The subject of a further data set is BUBR1 promoter. Briefly: Luciferase assay of BUBR1 promoter in HEK-293T cells. It is filed as cell-based. As to conditions: for Relative luciferase activity of BUBR1 promoter (UPCP/Mock): Fig. 4b, HEK293T, Mock = 1, P=0.684. The protocol:
The experiments were performed as described previously. The BUBR1 (–1,200 to +100) promoter or the DNA fragment of BUBR1 mRNA 3′-UTR was inserted into the pGL4.20 vector. Cells were plated in 24-well plates. After 24 h, cells were cotransfected with 200 ng of the indicated firefly luciferase reporter plasmid and 50 ng of Renilla luciferase normalization control plasmid using PEI. At 48 h after transfection, cell lysates were collected to measure luciferase activity using the Dual-Luciferase Reporter Assay System (Promega, catalog no. E1910) according to the manufacturer’s instructions. Luciferase reporter assay was carried out on an TD-20/20 Turner Designs luminometer, data were analyzed and further processed in Microsoft Excel and GraphPad Prism v.7.

For the substance “H-YGRKKRRQRRRYNLRSRTVLCGTCGQPADKASASGSGAQSPQNCSIM-OH (cysteines drawn unpaired) [UPCP, unique progerin C-terminal peptide]”, the “BUBR1 expression (FTI-277/UPCP comparison, words)” value in data set [1] (HGADFN003) is “increasing expression of BUBR1”. Further, the “CyclinA2 expression (FTI-277/UPCP comparison, words)” value in data set [1] (HGADFN003) is “increasing expression of BUBR1, CyclinA2”. Further, the BUBR1 abundance entry in data set [1] (HGADFN003 cells, UPCP 0–10 μM, Western blot) was “upregulated BUBR1”. Besides, the “time to cellular uptake” value with HGPS cells is given as at most 2 h. The “Dose Response Curve, Response” value is listed as 928.56 at BUBR1 (Dose 3.125e-6, Err-Value 0.164542); 930.678 at BUBR1 (Dose 6.25e-6, Err-Value 0.285623); 932.492 on BUBR1 (Dose 1.25e-5, Err-Value 0.150599); 919.933 at BUBR1 (Dose 1.22E-08, Err-Value 0.206069); 919.392 at BUBR1 (Dose 1.53E-09, Err-Value 0.561265); 925.424 at BUBR1 (Dose 1.56E-06, Err-Value 0.465775). The “Dose Response Curve, Response” value is listed as 920.487 at BUBR1 (Dose 1.95E-07, Err-Value 0.135144); 919.498 on BUBR1 (Dose 2.44E-08, Err-Value 0.0972446); 919.513 on BUBR1 (Dose 3.05E-09, Err-Value 0.226695); 919.141 on BUBR1 (Dose 3.81E-10, Err-Value 0.379307); 921.751 on BUBR1 (Dose 3.91E-07, Err-Value 0.144905); 920.216 at BUBR1 (Dose 4.88E-08, Err-Value 0.856541). Moreover, the “Dose Response Curve, Response” value at BUBR1 (Dose 6.10E-09, Err-Value 0.130907) is recorded as 919.306; on BUBR1 (Dose 7.63E-10, Err-Value 0.475828), 919.4; at BUBR1 (Dose 7.81E-07, Err-Value 0.529145), 922.85; at BUBR1 (Dose 9.77E-08, Err-Value 0.363098), 919.824. The entries for the “Relative luciferase activity of BUBR1 promoter (UPCP/Mock)” value with BUBR1 promoter (replicate 1), with BUBR1 promoter (replicate 2) and in the data set with BUBR1 promoter (replicate 3) were 0.9458, 1.36 and 0.8889, respectively. In addition, the “luciferase activity of the BUBR1 promoter” value in the data set on BUBR1 promoter (HEK-293T cells) is “failed to enhance luciferase activity of the BUBR1 promoter”.
